Laboratory results from patent publication US6630488B1, “Quinolizinones as integrin inhibitors” (Biochem Pharma, Inc., priority 1998, dated 2003).
Where a name gives a salt, the structure may show the parent alone.

Columns and labels:
[1] = molecular target: T1, GP IIb-IIIa (αIIbβ3) (Homo sapiens, UniProt P05106+P08514); assay: Fibrinogen binding to immobilized GP IIb-IIIa (αIIbβ3); details: biotinylated-fibrinogen 10 nM, immobilized GP IIb-IIIa; read-out: IC50 values for the fibrinogen binding assay αIIbβ3
T1 construct: purchased Calbiochem
T1 sequence (P08514 32-887 limits assumed): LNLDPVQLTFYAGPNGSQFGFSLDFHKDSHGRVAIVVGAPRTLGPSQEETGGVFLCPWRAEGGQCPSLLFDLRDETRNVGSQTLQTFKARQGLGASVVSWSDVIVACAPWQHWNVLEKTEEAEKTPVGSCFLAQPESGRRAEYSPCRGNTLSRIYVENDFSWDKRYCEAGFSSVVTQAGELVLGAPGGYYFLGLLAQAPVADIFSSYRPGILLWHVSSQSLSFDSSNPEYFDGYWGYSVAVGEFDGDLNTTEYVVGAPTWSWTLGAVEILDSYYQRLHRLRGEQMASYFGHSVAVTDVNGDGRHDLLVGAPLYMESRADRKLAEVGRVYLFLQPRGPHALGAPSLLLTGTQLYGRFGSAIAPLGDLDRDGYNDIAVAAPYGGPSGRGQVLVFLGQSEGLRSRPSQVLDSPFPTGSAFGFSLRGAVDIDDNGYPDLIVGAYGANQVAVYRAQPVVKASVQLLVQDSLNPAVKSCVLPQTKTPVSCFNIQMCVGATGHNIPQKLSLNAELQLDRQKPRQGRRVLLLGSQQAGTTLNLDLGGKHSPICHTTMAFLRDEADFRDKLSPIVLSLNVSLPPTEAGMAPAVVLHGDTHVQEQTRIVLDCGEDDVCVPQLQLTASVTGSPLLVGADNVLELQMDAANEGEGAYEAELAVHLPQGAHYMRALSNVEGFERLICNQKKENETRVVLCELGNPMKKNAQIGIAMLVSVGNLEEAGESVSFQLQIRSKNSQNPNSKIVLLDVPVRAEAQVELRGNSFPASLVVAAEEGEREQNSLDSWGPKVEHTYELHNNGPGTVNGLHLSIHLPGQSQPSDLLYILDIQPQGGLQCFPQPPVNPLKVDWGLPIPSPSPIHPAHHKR
T1 sequence (P08514 891-1039 partner limits assumed): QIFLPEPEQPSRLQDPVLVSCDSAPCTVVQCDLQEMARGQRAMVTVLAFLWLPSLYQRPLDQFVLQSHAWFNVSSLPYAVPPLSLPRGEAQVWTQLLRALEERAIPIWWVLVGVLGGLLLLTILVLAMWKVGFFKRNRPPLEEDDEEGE
T1 sequence (P05106 27-788): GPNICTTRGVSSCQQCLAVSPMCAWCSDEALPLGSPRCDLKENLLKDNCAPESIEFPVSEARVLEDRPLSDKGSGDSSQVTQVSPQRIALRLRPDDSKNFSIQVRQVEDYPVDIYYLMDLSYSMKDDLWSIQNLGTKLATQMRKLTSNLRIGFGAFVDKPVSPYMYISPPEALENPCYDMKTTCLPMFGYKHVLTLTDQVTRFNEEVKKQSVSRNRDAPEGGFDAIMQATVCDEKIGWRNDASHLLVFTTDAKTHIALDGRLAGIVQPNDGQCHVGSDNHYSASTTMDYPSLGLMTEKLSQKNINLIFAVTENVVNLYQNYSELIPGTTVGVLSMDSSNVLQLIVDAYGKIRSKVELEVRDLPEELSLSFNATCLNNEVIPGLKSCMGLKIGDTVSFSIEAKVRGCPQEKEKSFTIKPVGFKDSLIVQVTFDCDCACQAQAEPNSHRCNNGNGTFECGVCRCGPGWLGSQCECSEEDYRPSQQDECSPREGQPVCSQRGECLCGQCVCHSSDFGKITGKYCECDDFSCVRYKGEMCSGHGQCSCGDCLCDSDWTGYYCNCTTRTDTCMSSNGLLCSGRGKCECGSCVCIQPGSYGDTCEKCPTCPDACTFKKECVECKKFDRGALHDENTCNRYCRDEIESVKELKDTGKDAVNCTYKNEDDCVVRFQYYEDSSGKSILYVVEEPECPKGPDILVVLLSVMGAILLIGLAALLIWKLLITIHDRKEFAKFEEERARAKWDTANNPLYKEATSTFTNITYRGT
Procedure: (§1) Nonbound fibrinogen was removed by five washes with binding buffer. Avidin conjugated to alkaline phosphatase (Sigma), diluted in binding buffer, was added and incubated for two hours at 37° C. The plates were washed five times with binding buffer, and after addition of the substrate PNPP (Pierce), the enzyme activity was measured by the absorbance at 405 nm.

[2] = test system: Chick Chorioallantoic Membrane (CAM) capillary formation; assay: Chick chorioallantoic membrane (CAM) mesh assay; assay type: in vivo, chicken; details: Day 12, 24 hr treatment
Procedure: Fertilized white leghorn chicken eggs (SPAFAS Inc., Norwich, Conn.) were received at day 0 and incubated for 3 days at 37 C with constant humidity. On day 3, eggs were rinsed with 70% ethanol and opened into 100 mm^2 tissue culture coated Petri dishes under aseptic conditions. The embryos were then returned to a humidified 38 C incubator for 7-9 additional days.
Vitrogen (Collagen Biomaterials, Palo Alto, Calif.) at a final concentration of 0.73 mg/ml and Matrigel (Becton Dickinson, Bedford, Mass.) at a final concentration of 10 mg/ml was directly pipetted onto Nylon meshes with 250 μm^2 openings which were cut into 4 mm×4 mm squares and autoclaved. Polymerization of meshes were under aseptic conditions, on bacteriological Petri dishes. The polymerization conditions for each substrate were identical; after mixing with or without […] of VPF/VEGF165 (Peprotech, Rocky Hill, N.J.) and/or compounds of interest, 40 μl were pipetted onto each mesh in a bacteriological Petri dish.
The Petri dish was placed in a humidified 37 C incubator with 5% CO2 for 30 minutes to allow polymerization followed by an incubation at 4 C for 2 hours.
In a tissue culture enclosure, meshes were placed onto the periphery of the CAM of a day 12-14 embryo, excluding areas containing major vessels. The embryos were then returned to the humidified 38 C incubator with 3% CO2 for 24 to 48 additional hours.
Embryos were removed from the incubator and meshes were viewed under a dissecting microscope for gross evaluation. Injection of 400 μl FITC dextran, MW 2,000,000 (Sigma, St. Louis, Mo.) through glass microcapillary tubes by infusion into the umbilical vein was performed at a rate of 200 μl per minute. The FITC dextran was allowed to circulate for 5 minutes and 3.7% formaldehyde in PBS was applied directly on each mesh. The embryos were then incubated at 4 C for 5 minutes and the meshes were dissected off the CAM and fixed in 3.7% formaldehyde for 10 minutes to overnight.
After fixation, meshes were mounted on slides with 90% glycerol in PBS and visualized on an inverted fluorescence microscope. A Nikon Diaphot with a Sony DXC-151A camera attached to the side port was used for capture of images and analysis was with the NIH Image 1.61 software program. For each mesh, 5 random staggered images (approximately 600 μm each) were captured. The areas of high intensity were highlighted and measured. Results are expressed as ability to suppress capillary formation after subtraction from negative control. Values were calculated as i inhibition, considering 100% the capillary density achieved by VPF in the presence of vitrogen alone minus the background levels in the absence of VPF. Negative values indicate angiogenic stimulation above the VPF positive control.

[3] = molecular target: T2, placental αvβ3 (Homo sapiens, UniProt P05106+P06756); assay: Fibrinogen binding to immobilized αvβ3; details: biotinylated-fibrinogen 10 nM, immobilized placental αvβ3; read-out: IC50 values for the fibrinogen binding assay αvβ3
T2 construct: purified active GP IIb-IIIa (Calbiochem) or olacental αvβ3 at 0.5 μg/ml; from tissue; host or cells: placenta
T2 sequence (P06756 31-889 limits assumed): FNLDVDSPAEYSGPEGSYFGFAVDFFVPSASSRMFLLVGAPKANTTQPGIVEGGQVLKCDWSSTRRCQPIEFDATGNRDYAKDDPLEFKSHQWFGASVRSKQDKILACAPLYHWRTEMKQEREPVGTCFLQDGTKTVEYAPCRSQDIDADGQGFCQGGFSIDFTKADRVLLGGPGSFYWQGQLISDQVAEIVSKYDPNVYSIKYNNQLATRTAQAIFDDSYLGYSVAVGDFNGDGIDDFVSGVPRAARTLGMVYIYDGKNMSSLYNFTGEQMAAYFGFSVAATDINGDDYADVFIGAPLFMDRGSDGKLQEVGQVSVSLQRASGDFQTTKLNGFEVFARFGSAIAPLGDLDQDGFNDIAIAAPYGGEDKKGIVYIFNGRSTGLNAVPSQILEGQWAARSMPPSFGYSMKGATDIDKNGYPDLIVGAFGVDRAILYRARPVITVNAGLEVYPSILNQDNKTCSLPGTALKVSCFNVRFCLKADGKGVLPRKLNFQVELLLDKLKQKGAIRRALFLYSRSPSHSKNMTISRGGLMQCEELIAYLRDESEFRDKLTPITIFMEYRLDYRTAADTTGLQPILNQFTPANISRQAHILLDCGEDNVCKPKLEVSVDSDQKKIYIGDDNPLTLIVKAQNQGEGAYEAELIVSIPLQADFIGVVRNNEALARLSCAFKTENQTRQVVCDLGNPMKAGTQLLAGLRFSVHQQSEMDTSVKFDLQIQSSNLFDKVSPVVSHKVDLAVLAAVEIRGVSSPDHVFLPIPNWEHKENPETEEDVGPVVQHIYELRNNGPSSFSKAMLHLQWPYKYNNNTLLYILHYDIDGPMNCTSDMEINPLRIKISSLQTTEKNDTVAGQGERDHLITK
T2 sequence (P06756 891-1048 partner limits assumed): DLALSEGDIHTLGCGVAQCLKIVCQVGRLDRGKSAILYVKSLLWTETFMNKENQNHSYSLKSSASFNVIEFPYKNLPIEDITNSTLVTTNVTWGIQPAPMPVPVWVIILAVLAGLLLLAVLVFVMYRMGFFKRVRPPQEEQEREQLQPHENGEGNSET
T2 sequence (P05106 27-788): as the sequence (P05106 27-788) above
Procedure: as §1

| Compound | IC50 [1] | IC50 [3] | also measured |
| --- | --- | --- | --- |
| NCCCOc1ccc2ccc(C(=O)N[C@H]3CCCC[C@@H]3C(=O)O)c(=O)n2c1.O=C(O)C(F)(F)F (racemic) [Compound V, (+/−)(trans)-2-{[7-(3-Amino-propoxy)-4-oxo-4H-quinolizine-3-carbonyl]-amino}-cyclohexanecarboxylic Acid Trifluoroacetic Acid Salt] | 96000 nM | > 100000 nM | CAM inhibition of capillary formation ([2]; 3 μg/mesh, +VPF): 7%; CAM inhibition of capillary formation ([2]; 3 μg/mesh, −VPF): 1%; CAM inhibition of capillary formation ([2]; 17 μg/mesh, +VPF): 9%; CAM inhibition of capillary formation ([2]; 17 μg/mesh, −VPF): 8%; CAM inhibition of capillary formation ([2]; 33 μg/mesh, +VPF): 20%; CAM inhibition of capillary formation ([2]; 33 μg/mesh, −VPF): 15% |
| N=C(N)N1CCN(c2ccn3c(=O)c(C(=O)NC(CC(=O)O)c4ccccc4)ccc3c2)CC1.O=C(O)C(F)(F)F (racemic) [Compound XL, (+/−)-3-{[8-(4-Carbamimidoyl-piperazin-1-yl)-4-oxo-4H-quinolizine-3-carbonyl]-amino}-3-phenyl-propionic Acid Trifluoroacetic Acid Salt] |  | 1900 nM | CAM inhibition of capillary formation ([2]; 3 μg/mesh, +VPF): −2%; CAM inhibition of capillary formation ([2]; 3 μg/mesh, −VPF): 4%; CAM inhibition of capillary formation ([2]; 17 μg/mesh, +VPF): 7%; CAM inhibition of capillary formation ([2]; 17 μg/mesh, −VPF): 10%; CAM inhibition of capillary formation ([2]; 33 μg/mesh, +VPF): 11%; CAM inhibition of capillary formation ([2]; 33 μg/mesh, −VPF): 9% |
| N=C(N)NCc1ccc2cc(C(=O)NC[C@H](NC(=O)OCc3ccccc3)C(=O)O)cc(=O)n2c1 [Compound XLVIII, (S)-2-Benzyloxycarbonylamino-3-[(7-guanidinomethyl-4-oxo-4H-quinolizine-2-carbonyl)-amino]-propionic acid trifluoroacetic acid salt] | 2600 nM | 4.9 nM |  |
| NCCCOc1ccc2cc(C(=O)NCCC(=O)O)cc(=O)n2c1 [Compound XVI, 3-{[7-(3-Amino-propoxy)-4-oxo-4H-quinolizine-2-carbonyl]-amino}-propionic Acid Trifluoroacetic Acid Salt] | 1500 nM | > 100000 nM |  |
| NCCCCOc1ccc2cc(C(=O)NC[C@H](NS(=O)(=O)c3ccccc3)C(=O)O)cc(=O)n2c1 [Compound XVII, (S)-3-{[7-(4-Amino-butoxy)-4-oxo-4H-quinolizine-2-carbonyl]-amino}-2-benzenesulfonylamino-propionic Acid Trifluoroacetic Acid Salt] | 0.17 nM | 5100 nM |  |
| N=C(N)NCCCCOc1ccc2cc(C(=O)NC[C@H](NS(=O)(=O)c3ccccc3)C(=O)O)cc(=O)n2c1 [Compound XVIII, (S)-2-Benzenesulfonylamino-3-{[7-(4-guanidino-butoxy)-4-oxo-4H-quinolizine-2-carbonyl]-amino}-propionic Acid Hydrochloride] | 5.3 nM | 2200 nM |  |
| N=C(N)NCCCOc1ccc2cc(C(=O)NCC(Nc3ncccn3)C(=O)O)cc(=O)n2c1 (stereo not drawn) [Compound XXII, 3-{[7-(3-Guanidino-propoxy)-4-oxo-4H-quinolizine-2-carbonyl]-amino}-2-(pyrimidin-2-ylamino)-propionic Acid Hydrochloride] | 45 nM | 540 nM |  |
| CN([C@@H](CNC(=O)c1cc(=O)n2cc(OCCCN)ccc2c1)C(=O)O)S(=O)(=O)c1ccccc1 [Compound XXIII, (S)-3-{[7-(3-Amino-propoxy)-4-oxo-4H-quinolizine-2-carbonyl]-amino}-2-(benzenesulfonyl-methyl-amino)-propionic Acid Trifluoroacetic Acid Salt] | 820 nM | > 100000 nM |  |
| CN([C@@H](CNC(=O)c1cc(=O)n2cc(OCCCNC(=N)N)ccc2c1)C(=O)O)S(=O)(=O)c1ccccc1 [Compound XXIV, (S)-2-(Benzenesulfonyl-methyl-amino)-3-{[7-(3-guanidino-propoxy)-4-oxo-4H-quinolizine-2-carbonyl]-amino}-propionic Acid Hydrochloride] | 1300 nM | 58000 nM |  |
| O=C(NC[C@H](NS(=O)(=O)c1ccccc1)C(=O)O)c1cc(=O)n2cc(OCCCNc3ncccn3)ccc2c1 [Compound XXV, (S)-2-Benzenesulfonylamino-3-({4-oxo-7-[3-(pyrimidin-2-ylamino)-propoxy]-4H-quinolizine-2-carbonyl}-amino)-propionic Acid] | 1250 nM | 15000 nM |  |
| NCC1CCc2cc(C(=O)NCC(NS(=O)(=O)c3ccccc3)C(=O)O)cc(=O)n2C1 [Compound XXVIII, (2S, 7R) and (2S, 7S)-3-[(7-Aminomethyl-4-oxo-6,7,8,9-tetrahydro-4H-quinolizine-2-carbonyl)-amino]-2-benzenesulfonylamino-propionic Acid Trifluoroacetic Acid Salt] | 100 nM | 370 nM |  |
| NCCCOc1ccn2c(=O)cc(C(=O)NC[C@H](NS(=O)(=O)c3ccccc3)C(=O)O)cc2c1 [Compound XXX, (S)-3-{[8-(3-Amino-propoxy)-4-oxo-4H-quinolizine-2-carbonyl]-amino}-2-benzenesulfonylamino-propionic Acid Trifluoroacetic Acid Salt] | 110 nM | 17000 nM |  |
| N=C(N)NCCCOc1ccn2c(=O)cc(C(=O)NC[C@H](NS(=O)(=O)c3ccccc3)C(=O)O)cc2c1 [Compound XXXI, (S)-2-Benzenesulfonylamino-3-{[8-(3-guanidino-propoxy)-4-oxo-4H-quinolizine-2-carbonyl]-amino)-propionic Acid Hydrochloride] | 24 nM | 9400 nM |  |
| NCCCCOc1ccn2c(=O)cc(C(=O)NC[C@H](NS(=O)(=O)c3ccccc3)C(=O)O)cc2c1 [Compound XXXII, (S)-3-{[8-(4-Amino-butoxy)-4-oxo-4H-quinolizine-2-carbonyl]-amino}-2-benzenesulfonylamino-propionic Acid Trifluoroacetic Acid Salt] | 5.5 nM | 12000 nM |  |
| N=C(N)NCCCCOc1ccn2c(=O)cc(C(=O)NC[C@H](NS(=O)(=O)c3ccccc3)C(=O)O)cc2c1 [Compound XXXIII, (S)-2-Benzenesulfonylamino-3-{[8-(4-guanidino-butoxy)-4-oxo-4H-quinolizine-2-carbonyl]-amino}-propionic Acid Hydrochloride] | 44 nM | 15000 nM |  |
| NCCCCCOc1ccn2c(=O)cc(C(=O)NC[C@H](NS(=O)(=O)c3ccccc3)C(=O)O)cc2c1 [Compound XXXIV, (S)-3-{[8-(S-Amino-pentyloxy)-4-oxo-4H-quinolizine-2-carbonyl]-amino}-2-benzenesulfonylamino-propionic Acid Trifluoroacetic Acid Salt] | 16 nM | 17000 nM |  |
| N=C(N)NCCCCCOc1ccn2c(=O)cc(C(=O)NC[C@H](NS(=O)(=O)c3ccccc3)C(=O)O)cc2c1 [Compound XXXV, (S)2-Benzenesulfonylamino-3-{[8-(5-guanidino-pentyloxy)-4-oxo-4H-quinolizine-2-carbonyl]-amino}propionic Acid Hydrochloride] | 1500 nM | 15000 nM |  |
